These results are taken from patent US20240116985A1, “STAPLED PEPTIDES AND METHODS THEREOF” (priority 2020, published 2024).

For series [1], the target named is T1, full-length beta-Catenin (Uniprot ID P35222) (Homo sapiens, UniProt P35222).
T1 construct: 10 nM full-length beta-Catenin (Uniprot ID P35222)
T1 sequence (P35222 1-781): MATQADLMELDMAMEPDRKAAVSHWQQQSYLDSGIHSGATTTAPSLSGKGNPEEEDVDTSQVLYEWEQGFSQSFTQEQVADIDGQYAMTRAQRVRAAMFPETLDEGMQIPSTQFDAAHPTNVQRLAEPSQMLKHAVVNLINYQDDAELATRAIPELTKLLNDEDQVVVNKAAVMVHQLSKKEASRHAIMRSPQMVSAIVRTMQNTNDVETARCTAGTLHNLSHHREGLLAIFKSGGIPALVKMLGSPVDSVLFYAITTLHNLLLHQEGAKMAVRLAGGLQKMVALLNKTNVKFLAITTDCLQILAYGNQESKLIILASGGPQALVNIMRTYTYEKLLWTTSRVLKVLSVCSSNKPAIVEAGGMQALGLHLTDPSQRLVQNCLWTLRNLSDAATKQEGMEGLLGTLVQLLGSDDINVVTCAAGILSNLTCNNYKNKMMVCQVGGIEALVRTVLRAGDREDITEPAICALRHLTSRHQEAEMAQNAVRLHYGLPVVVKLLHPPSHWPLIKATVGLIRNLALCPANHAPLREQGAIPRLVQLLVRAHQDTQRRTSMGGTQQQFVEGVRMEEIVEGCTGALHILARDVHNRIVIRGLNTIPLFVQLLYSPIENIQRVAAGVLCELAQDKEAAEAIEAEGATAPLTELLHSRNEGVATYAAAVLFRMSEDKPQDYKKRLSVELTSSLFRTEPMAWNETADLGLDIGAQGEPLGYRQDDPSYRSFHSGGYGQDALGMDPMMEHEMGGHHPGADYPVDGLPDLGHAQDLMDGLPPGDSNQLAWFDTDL
Put plainly: Fluorescence polarization IC50 (beta-catenin / 5FAM-TCF4 10-53 competition). In kind it is binding. Background: In fluorescence polarisation assays a small probe gives low polarisation when free and higher when bound to something large.

Series [2] deals with T2, beta-catenin/TCF4 engagement (Homo sapiens, UniProt P35222).
T2 construct: expressed in transfected cells; host or cells: HEK293
T2 sequence (P35222 1-781): T1 sequence (P35222 1-781)
Put plainly: Nano-BRET target engagement assay (B-cat-Halo & TCF4-Luc in HEK293 cells). In kind it is cell-based.

Series [3] is described as follows: CHI Log D procedure. In kind it is physicochemical. The following applies: for chromatographic logD: pH 7.4, CHI Log D; for CHI Log D: pH 7.4.
A short description of series [4]: Solubility in PBS. In kind it is physicochemical. Put shortly:
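Read-out is the HPLC peak area of the supernatant from ultracentrifuged PBS solution, scaled against a 50 μM peptide DMSO injection; value reported as [(PBS area)/(DMSO area)]*50 uM.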

[5] abbreviates: fluorescence polarization, read-out: beta-Catenin FP IC50.
[6] abbreviates: absolute IC50, read-out: NanoBRET Abs IC50.

≈ marks a conversion by molar mass, not a printed value. Read-outs that look alike come from different tables or passages of the source.

Usually chromatographic logD stands for a lipophilicity value derived from retention on a column. Higher therefore signals higher lipophilicity. The Solubility is the concentration that dissolves in the medium under given conditions.

Regarding `CC(=O)N1CCC[C@]12CC=CCCCC1(CCCC=CCCCCCC[C@@](C)(C(=O)N[C@@H](Cc3ccccc3)C(=O)N[C@@H](Cc3csc4ccccc34)C(=O)N[C@@H](Cc3c[nH]cn3)C(N)=O)NC(=O)[C@H](CC(N)=O)NC(=O)[C@H](Cc3ccccc3)NC(=O)[C@H](C)NC(=O)[C@H](C)NC(=O)[C@H](CC(=O)O)NC(=O)[C@H](CC(=O)O)NC1=O)NC(=O)[C@H](CC(C)(C)C)NC(=O)[C@H](CC(=O)O)NC2=O` (stereo partly drawn) [I-582, Ac-PL3-Asp-Npg-B5-Asp-Asp-Ala-Ala-Phe-Asn-S8-Phe-BztA-His-NH2], the IC50 in series [1] (setting [5]) was 17.5 nM; in series [2] (setting [6]), 15.8 µM. The compound also gave a chromatographic logD in series [3] of 2.5. This compound also registered a Solubility in series [4] (Solubility (uM)) of 22 µM (≈ 41.3 µg/mL).
On to `CC(=O)N1CCC[C@]12CC=CCCCC1(CCCC=CCCCCCC[C@@](C)(C(=O)N[C@@H](Cc3ccccc3)C(=O)N[C@@H](Cc3csc4ccccc34)C(=O)N[C@@H](CCC(N)=O)C(N)=O)NC(=O)[C@H](CC(N)=O)NC(=O)[C@H](Cc3ccccc3)NC(=O)[C@H](C)NC(=O)[C@H](C)NC(=O)[C@H](CCC(=O)O)NC(=O)[C@H](CC(=O)O)NC1=O)NC(=O)[C@H](CC1CCCCC1)NC(=O)[C@H](CC(=O)O)NC2=O` (stereo partly drawn) [I-620, Ac-PL3-Asp-Cha-B5-Asp-Glu-Ala-Ala-Phe-Asn-S8-Phe-BztA-Gln-NH2], for which the IC50 in series [1] (setting [5]) was 35 nM; in series [1] (read-out: FP EC50), 35 nM; in series [2] (setting [6]), 12 µM; in series [2] (read-out: NanoBRET IC50), 5.8 µM. For the same compound, the “CHI Log D” value in series [3] stood at 2.688. Further, the “Solubility” value in series [4] is 48 µM (≈ 91.6 µg/mL).
With `CC(=O)N1CCC[C@]12CC=CCCCC1(CCCC=CCCCCCC[C@@](C)(C(=O)N[C@@H](Cc3ccccc3)C(=O)N[C@@H](Cc3csc4ccccc34)C(N)=O)NC(=O)[C@H](CCCNC(N)=O)NC(=O)[C@H](Cc3ccccc3)NC(=O)[C@H](C)NC(=O)[C@H](C)NC(=O)[C@H](CCC(=O)O)NC(=O)[C@H](CC(=O)O)NC1=O)NC(=O)[C@H](CC(C)C)NC(=O)[C@H](CC(=O)O)NC2=O` (stereo partly drawn) [I-629, Ac-PL3-Asp-Leu-B5-Asp-Glu-Ala-Ala-Phe-Cit-S8-Phe-BztA-NH2], the IC50 in series [1] (setting [5]) came to 36 nM; in series [1] (read-out: FP EC50), 685 nM; in series [2] (setting [6]), 30 µM. In addition, the “CHI Log D” value in series [3] is 3.109. Besides, the “Solubility” value in series [4] amounted to 40 µM (≈ 71.4 µg/mL).
Consider `CC[C@H](C)[C@@H]1NC(=O)[C@H](CC(=O)O)NC(=O)[C@]2(CC=CCCCC3(CCCC=CCCCCCC[C@@](C)(C(=O)N[C@@H](Cc4ccccc4)C(=O)N[C@@H](Cc4csc5ccccc45)C(=O)N[C@@H](CCC(N)=O)C(N)=O)NC(=O)[C@H](CCC(N)=O)NC(=O)[C@H](Cc4ccccc4)NC(=O)[C@H](C)NC(=O)[C@H](CCC(N)=O)NC(=O)[C@H](CCC(=O)O)NC(=O)[C@H](CC(=O)O)NC3=O)NC1=O)CCCN2C(C)=O` (stereo partly drawn) [I-654, Ac-PL3-Asp-Ile-B5-Asp-Glu-Gln-Ala-Phe-Gln-S8-Phe-BztA-Gln-NH2], for which the IC50 in series [1] (setting [5]) worked out at 20 nM; in series [1] (read-out: FP EC50), 20 nM; in series [2] (setting [6]), 15 µM. Besides, the “CHI Log D” value in series [3] stood at 2.121. In series [4], the “Solubility” value worked out at 47 µM (≈ 91.2 µg/mL).
On to `CC[C@H](C)[C@@H]1NC(=O)[C@H](CC(=O)O)NC(=O)[C@]2(CC=CCCCC3(CCCC=CCCCCCC[C@@](C)(C(=O)N[C@@H](Cc4ccccc4)C(=O)N[C@@H](Cc4csc5ccccc45)C(=O)N[C@@H](CCC(N)=O)C(N)=O)NC(=O)[C@H](CCC(N)=O)NC(=O)[C@H](Cc4ccccc4)NC(=O)[C@H](CO)NC(=O)[C@H](C)NC(=O)[C@H](CCC(=O)O)NC(=O)[C@H](CC(=O)O)NC3=O)NC1=O)CCCN2C(C)=O` (stereo partly drawn) [I-662, Ac-PL3-Asp-Ile-B5-Asp-Glu-Ala-Ser-Phe-Gln-S8-Phe-BztA-Gln-NH2], for which the IC50 in series [1] (setting [5]) is 26 nM; in series [1] (read-out: FP EC50), 26 nM; in series [2] (setting [6]), 16.1 µM. Moreover, in series [3], the “CHI Log D” value turned out to be 2.125. Further, in series [4], the “Solubility” value stood at 46 µM (≈ 87.4 µg/mL).
As to `CC(=O)N1CCC[C@]12CC=CCCCC1(CCCC=CCCCCCC[C@@](C)(C(=O)N[C@@H](Cc3ccccc3)C(=O)N[C@@H](Cc3csc4ccccc34)C(=O)N[C@@H](CCC(N)=O)C(N)=O)NC(=O)[C@H](CC(N)=O)NC(=O)[C@H](Cc3ccccc3)NC(=O)[C@H](C)NC(=O)[C@H](C)NC(=O)[C@H](CCC(=O)O)NC(=O)[C@H](CC(=O)O)NC1=O)NC(=O)[C@H](CC(C)(C)C)NC(=O)[C@H](CC(=O)O)NC2=O` (stereo partly drawn) [I-677, Ac-PL3-Asp-Npg-B5-Asp-Glu-Ala-Ala-Phe-Asn-S8-Phe-BztA-Gln-NH2], the IC50 is 22 nM in series [1] (setting [5]) and 6.7 µM in series [2] (setting [6]). Moreover, in series [3], the chromatographic logD is 2.45. In series [4] (Solubility (uM)), this compound registered a Solubility of 49 µM (≈ 92.3 µg/mL).
For `CC(=O)N1CCC[C@]12CC=CCCCC1(CCCC=CCCCCCC[C@@](C)(C(=O)N[C@@H](Cc3ccsc3)C(=O)N[C@@H](Cc3csc4ccccc34)C(=O)N[C@@H](CCC(N)=O)C(N)=O)NC(=O)[C@H](CC(N)=O)NC(=O)[C@H](Cc3ccccc3)NC(=O)[C@H](C)NC(=O)[C@H](C)NC(=O)[C@H](CC(=O)O)NC(=O)[C@H](CC(=O)O)NC1=O)NC(=O)[C@H](CC(C)(C)C)NC(=O)[C@H](CC(=O)O)NC2=O` (stereo partly drawn) [I-678, Ac-PL3-Asp-Npg-B5-Asp-Asp-Ala-Ala-Phe-Asn-S8-3Thi-BztA-Gln-NH2], the IC50 in series [1] (setting [5]) is 26 nM; in series [1] (read-out: FP EC50), 26 nM; in series [2] (setting [6]), 16.8 µM. Further, the “CHI Log D” value in series [3] is recorded as 2.329. Besides, the “Solubility” value in series [4] turned out to be 49 µM (≈ 91.9 µg/mL).
`CC(=O)N1CCC[C@]12CC=CCCCC1(CCCC=CCCCCCC[C@@](C)(C(=O)N[C@@H](Cc3ccsc3)C(=O)N[C@@H](Cc3csc4ccccc34)C(=O)N[C@@H](CCC(N)=O)C(N)=O)NC(=O)[C@H](CC(N)=O)NC(=O)[C@H](Cc3ccccc3)NC(=O)[C@H](C)NC(=O)[C@H](C)NC(=O)[C@H](CC(=O)O)NC(=O)[C@H](CC(=O)O)NC1=O)NC(=O)[C@H](CC(C)(C)C)NC(=O)[C@H](CC(=O)O)NC2=O` (stereo partly drawn) [I-679, Ac-PL3-Asp-Npg-B5-Asp-Asp-Ala-Ala-Phe-Asn-S8-3Thi-BztA-Gln-NH2]: the IC50 in series [1] (setting [5]) stood at 7 nM; in series [1] (read-out: FP EC50) it was 7 nM; in series [2] (setting [6]) it was 17.1 µM. Further, the inhibition at 10 µM in series [2] (HEK293, @ 10 uM, read-out: NanoBRET % inh @ 10 uM) was 44.8%. The “CHI Log D” value in series [3] stood at 2.382. In addition, in series [4], the “Solubility” value was found to be 48 µM (≈ 90 µg/mL).
For the compound `CC(=O)N1CCC[C@]12CC=CCCCC1(CCCC=CCCCCCC[C@@](C)(C(=O)N[C@@H](Cc3ccsc3)C(=O)N[C@@H](Cc3csc4ccccc34)C(=O)N[C@@H](CCC(N)=O)C(N)=O)NC(=O)[C@H](CC(N)=O)NC(=O)[C@H](Cc3ccccc3)NC(=O)[C@H](C)NC(=O)[C@H](C)NC(=O)[C@H](CC(=O)O)NC(=O)[C@H](CC(=O)O)NC1=O)NC(=O)[C@H](CC(C)C)NC(=O)[C@H](CC(=O)O)NC2=O` (stereo partly drawn) [I-680, Ac-PL3-Asp-Leu-B5-Asp-Asp-Ala-Ala-Phe-Asn-S8-3Thi-BztA-Gln-NH2], the IC50 in series [1] (setting [5]) stood at 32 nM; in series [1] (read-out: FP EC50), 32 nM; in series [2] (setting [6]) it was 34.4 µM. In series [3], the “CHI Log D” value was 2.215. The “Solubility” value in series [4] is 47 µM (≈ 87.5 µg/mL).
